According to patent publication US9073855B2, “BCL-2 selective apoptosis-inducing agents for the treatment of cancer and immune diseases” (AbbVie Inc., priority 2008, dated 2015):

Legend:
GST-Bcl-2 = GST-Bcl-2 (Homo sapiens, UniProt P10415); assay: TR-FRET binding assay, GST-Bcl-2 with F-Bak peptide probe; details: for Ki: TR-FRET Binding Affinity, GST-Bcl-2, F-Bak peptide probe
Outline: (§1)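 Ki was derived with Wang's equation for competitive binding of two ligands. The read-out was time-resolved fluorescence after a 3 h room-temperature incubation, using a Tb-labelled antibody donor and the F-Bak peptide acceptor (excitation 340/35 nm). Test compounds entered as DMSO serial dilutions starting at 50 μM, which was the 2× concentration.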

GST-Bcl-XL = GST-Bcl-XL (Homo sapiens, UniProt Q07817); assay: TR-FRET binding assay, GST-Bcl-XL with F-Bak peptide probe; details: TR-FRET Binding Affinity, GST-Bcl-XL, F-Bak peptide probe
Outline: as §1

FL5.12/Bcl-2 cells = assay: FL5.12/Bcl-2 cell viability assay under IL-3 withdrawal (CellTitre Glo); type: cell-based, murine; details: Mus musculus, IL-3 withdrawn 48 hrs, then 24 hrs with compound
Outline: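 Cells (1×10^6/ml) are washed, resuspended in medium lacking WEHI-3B conditioned medium as IL-3 source, and held 48 hrs. Compounds are then added at a range of concentrations for 24 hrs, after which CellTitre Glo reports viability.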

Sequence of GST-Bcl-2 (P10415 whole entry): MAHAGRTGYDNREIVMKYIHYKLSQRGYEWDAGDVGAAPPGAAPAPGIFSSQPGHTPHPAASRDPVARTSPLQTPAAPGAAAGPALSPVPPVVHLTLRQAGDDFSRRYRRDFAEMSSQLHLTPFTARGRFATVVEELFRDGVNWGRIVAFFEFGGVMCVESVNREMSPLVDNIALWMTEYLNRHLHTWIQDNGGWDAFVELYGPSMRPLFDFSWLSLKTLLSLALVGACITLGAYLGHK
Sequence of GST-Bcl-XL (Q07817 whole entry): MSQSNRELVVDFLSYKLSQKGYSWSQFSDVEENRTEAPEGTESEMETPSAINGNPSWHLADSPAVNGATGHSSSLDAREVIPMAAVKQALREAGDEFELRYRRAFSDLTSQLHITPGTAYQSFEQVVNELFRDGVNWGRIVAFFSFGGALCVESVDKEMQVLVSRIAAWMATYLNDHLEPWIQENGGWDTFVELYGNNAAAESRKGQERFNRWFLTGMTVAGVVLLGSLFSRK

| Structure (SMILES) | Ki (GST-Bcl-2) [nM] | Binding selectivity ratio (Bcl-XL Ki/Bcl-2 Ki) (GST-Bcl-2; ratio of TR-FRET Ki values, Bcl-XL over Bcl-2) | Ki (GST-Bcl-XL) [nM] | EC50 (FL5.12/Bcl-2 cells) [nM] |
| --- | --- | --- | --- | --- |
| CC1(C)CCC(CN2CCN(c3ccc(C(=O)NS(=O)(=O)c4ccc(NCC56CC7CC(C5)C(O)C(C7)C6)c([N+](=O)[O-])c4)c(Oc4ccc5[nH]ccc5c4)c3)CC2)=C(c2ccc(Cl)cc2)C1 (stereo not drawn) [Example 322, 4-(4-{[2-(4-chlorophenyl)-4,4-dimethylcyclohex-1-en-1-yl]methyl}piperazin-1-yl)-N-{[4-({[Cis-4-hydroxy-1-adamantyl]methyl}amino)-3-nitrophenyl]sulfonyl}-2-(1H-indol-5-yloxy)benzamide] | 0.184 | >3591.4 | > 660 | 44.5 |
| CC1(C)CCC(CN2CCN(c3ccc(C(=O)NS(=O)(=O)c4ccc(NCCC(F)(F)F)c([N+](=O)[O-])c4)c(Oc4cccc5[nH]ccc45)c3)CC2)=C(c2ccc(Cl)cc2)C1 [Example 323, 4-(4-{[2-(4-chlorophenyl)-4,4-dimethylcyclohex-1-en-1-yl]methyl}piperazin-1-yl)-2-(1H-indol-4-yloxy)-N-({3-nitro-4-[(3,3,3-trifluoropropyl)amino]phenyl}sulfonyl)benzamide] | 0.949 |  | > 660 | 92.1 |
| CC1(C)CCC(CN2CCN(c3ccc(C(=O)NS(=O)(=O)c4ccc(NCCC(F)(F)F)c([N+](=O)[O-])c4)c(Oc4ccc5[nH]ccc5c4)c3)CC2)=C(c2ccc(Cl)cc2)C1 [Example 324, 4-(4-{[2-(4-chlorophenyl)-4,4-dimethylcyclohex-1-en-1-yl]methyl}piperazin-1-yl)-2-(1H-indol-5-yloxy)-N-({3-nitro-4-[(3,3,3-trifluoropropyl)amino]phenyl}sulfonyl)benzamide] | 1.48 |  | > 660 | 134 |
| CC1(C)CCC(CN2CCN(c3ccc(C(=O)NS(=O)(=O)c4cnc(NCC5CCOCC5)c(Br)c4)c(Oc4cccc5[nH]ccc45)c3)CC2)=C(c2ccc(Cl)cc2)C1 [Example 325, N-({5-bromo-6-[(tetrahydro-2H-pyran-4-ylmethyl)amino]pyridin-3-yl}sulfonyl)-4-(4-{[2-(4-chlorophenyl)-4,4-dimethylcyclohex-1-en-1-yl]methyl}piperazin-1-yl)-2-(1H-indol-4-yloxy)benzamide] | 2.33 |  | > 660 | 256 |
| CC1(C)CCC(CN2CCN(c3ccc(C(=O)NS(=O)(=O)c4ccc(NCC5CCS(=O)(=O)C5)c([N+](=O)[O-])c4)c(Oc4cccc5[nH]ccc45)c3)CC2)=C(c2ccc(Cl)cc2)C1 (stereo not shown) [Example 326, 4-(4-{[2-(4-chlorophenyl)-4,4-dimethylcyclohex-1-en-1-yl]methyl}piperazin-1-yl)-N-[(4-{[(1,1-dioxidotetrahydrothien-3-yl)methyl]amino}-3-nitrophenyl)sulfonyl]-2-(1H-indol-4-yloxy)benzamide] | 0.116 |  | > 660 | 35.1 |
| CC1(C)CCC(CN2CCN(c3ccc(C(=O)NS(=O)(=O)c4ccc(OCC5(F)CCOCC5)c([N+](=O)[O-])c4)c(Oc4ccc5[nH]ccc5c4)c3)CC2)=C(c2ccc(Cl)cc2)C1 [Example 327, 4-(4-{[2-(4-chlorophenyl)-4,4-dimethylcyclohex-1-en-1-yl]methyl}piperazin-1-yl)-N-({4-[(4-fluorotetrahydro-2H-pyran-4-yl)methoxy]-3-nitrophenyl}sulfonyl)-2-(1H-indol-5-yloxy)benzamide] | 0.031 |  | 95.6 | 6.57 |
| CNc1ccc(S(=O)(=O)NC(=O)c2ccc(N3CCN(CC4=C(c5ccc(Cl)cc5)CC(C)(C)CC4)CC3)cc2Oc2ccc3[nH]ccc3c2)cc1S(=O)(=O)C(F)(F)F [Example 328, 4-(4-{[2-(4-chlorophenyl)-4,4-dimethylcyclohex-1-en-1-yl]methyl}piperazin-1-yl)-2-(1H-indol-5-yloxy)-N-({4-(methylamino)-3-[(trifluoromethyl)sulfonyl]phenyl}sulfonyl)benzamide] | 1.86 |  | > 660 | > 500 |
